Assay results as given in the supplement of paper PMC10307832.

Legend:
Assay in all cases: relative viability (nuclei count vs DMSO), 5 days (fraction); higher = more cells survive
4EGI-1 + Alpelisib = compound: O=C(O)C(Cc1ccccc1[N+](=O)[O-])=NNc1nc(-c2ccc(Cl)c(Cl)c2)cs1 (mixture of isomers) [4EGI-1] + Cc1nc(NC(=O)N2CCC[C@H]2C(N)=O)sc1-c1ccnc(C(C)(C)C(F)(F)F)c1 [Alpelisib] (partner 2 µM)
How it was run: (§1)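 Cells from lung cancer lines were seeded into 1536-well plates and, one day later, dosed by pin tool. Treatments were either a single drug or a fixed dose of an anchor drug with five library-drug doses (not always all listed) in √10 steps. After 5 days, nuclei were stained in a one-step fixation (final 0.05% Triton X-100, 1% formaldehyde, 1 ug/ml Hoechst) and counted on 4× images, and relative viability is the treated-to-vehicle nuclei ratio, as the median of duplicate plates.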

4EGI-1 + Olaparib = compound: O=C(O)C(Cc1ccccc1[N+](=O)[O-])=NNc1nc(-c2ccc(Cl)c(Cl)c2)cs1 (mixture of isomers) [4EGI-1] + O=C(c1cc(Cc2n[nH]c(=O)c3ccccc23)ccc1F)N1CCN(C(=O)C2CC2)CC1 [Olaparib] (partner 8 µM)
How it was run: as §1

4EGI-1 + Tozasertib = compound: O=C(O)C(Cc1ccccc1[N+](=O)[O-])=NNc1nc(-c2ccc(Cl)c(Cl)c2)cs1 (mixture of isomers) [4EGI-1] + Cc1cc(Nc2cc(N3CCN(C)CC3)nc(Sc3ccc(NC(=O)C4CC4)cc3)n2)n[nH]1 [Tozasertib] (partner 0.1 µM)
How it was run: as §1

XMD8-85 + Lapatinib = compound: CN1CCN(CC1)C2=CC(=C(C=C2)NC3=NC=C4C(=N3)N(C5=CC=CC=C5C(=O)N4C)C)OC [XMD8-85] + CS(=O)(=O)CCNCc1ccc(-c2ccc3ncnc(Nc4ccc(OCc5cccc(F)c5)c(Cl)c4)c3c2)o1 [Lapatinib] (partner 2 µM)
How it was run: as §1

Cell Line | relative viability (4EGI-1 + Alpelisib; first compound 0.5 µM) | relative viability (4EGI-1 + Alpelisib; first compound 1.581 µM) | relative viability (4EGI-1 + Alpelisib; first compound 5 µM) | relative viability (4EGI-1 + Alpelisib; first compound 15.81 µM) | relative viability (4EGI-1 + Alpelisib; first compound 50 µM) | relative viability (4EGI-1 + Olaparib; first compound 0.5 µM) | relative viability (4EGI-1 + Olaparib; first compound 5 µM) | relative viability (4EGI-1 + Olaparib; first compound 15.81 µM) | relative viability (4EGI-1 + Olaparib; first compound 50 µM) | relative viability (4EGI-1 + Tozasertib; first compound 0.5 µM) | relative viability (4EGI-1 + Tozasertib; first compound 1.581 µM) | relative viability (4EGI-1 + Tozasertib; first compound 5 µM) | relative viability (4EGI-1 + Tozasertib; first compound 15.81 µM) | relative viability (4EGI-1 + Tozasertib; first compound 50 µM) | relative viability (XMD8-85 + Lapatinib; first compound 0.08 µM) | relative viability (XMD8-85 + Lapatinib; first compound 0.253 µM) | relative viability (XMD8-85 + Lapatinib; first compound 0.8 µM) | relative viability (XMD8-85 + Lapatinib; first compound 2.53 µM) | relative viability (XMD8-85 + Lapatinib; first compound 8 µM) | relative viability (4EGI-1 + Olaparib; first compound 1.581 µM)
EMC-BAC-2 | 0.733 | 0.628 | 0.72 | 0.485 | 0.656 | 0.517 | 0.5 | 0.37 | 0.2 | 0.324 | 0.262 | 0.329 | 0.312 | 0.26 | 0.914 | 0.847 | 0.945 | 0.944 | 0.835 | –
NCI-H1437 | 1.13 | 0.865 | 0.84 | 0.845 | 0.153 | 0.655 | 0.589 | 0.395 | 0.194 | 0.416 | 0.378 | 0.399 | 0.318 | 0.175 | 0.785 | 0.888 | 0.804 | 0.792 | 0.407 | 0.625
NCI-H650 | 1.15 | – | 1.25 | 1.15 | 0.92 | 0.439 | 0.414 | 0.404 | 0.288 | 0.858 | – | 0.777 | 0.644 | 0.626 | 0.867 | 0.858 | 1.04 | 0.876 | – | –
NCI-H2009 | 1.16 | 1.14 | 1.25 | 1.07 | 0.585 | 0.768 | 0.647 | 0.421 | 0.374 | 0.813 | 0.709 | 0.784 | 0.697 | 0.211 | 0.934 | 0.931 | 1.01 | 0.841 | 0.456 | 0.63
